The source of these data is US5763464A, “Retroviral agents containing anthranilamide, substituted benzamide and other subunits, and methods of using same” (The United States of America as represented by the …, priority 1995, dated 1998).

Structures are written as SMILES. Entries after “also recorded” stand apart in the source; their conditions may differ. Read-outs that look alike come from different tables or passages of the source. Bounds are passed on as bounds.

One data set deals with CEM cells. The data set is described as follows: Toxicity (IC50) in CEM cells, soluble formazan assay.
The next data set can be described thus: in vitro. As to conditions: human, cem cells.
For the next data set, the system named is HIV-1. As to conditions: cited from earlier work.
Data set [1] relates to HIV-1 (CEM cells chronically infected with HIV-1). Briefly: Anti-retroviral activity in CEM cells chronically infected with HIV-1, soluble formazan assay. The data set is classed as cell-based. As to conditions: Human immunodeficiency virus 1, CCRF-CEM. Here is the method: Using the soluble formazan assay described by Weislow et al. (J. Nat'l. Cancer Inst., 81, 577-586 (1989)), CEM cells chronically infected with HIV-1 were used to assay the anti-retroviral activity of test compounds described herein. The concentration of compound that inhibits 50% of viral activity (EC50; determined as described in Weislow et al. (1989), supra) and the inhibition constant (Ki, as defined in Example 7) for the compound were determined.

Data set [2] is described as follows: Toxicity (IC50) in CEM cells, soluble formazan assay. As to conditions: human, cem cells.
The next data set deals with α-1 acid glycoprotein. The data set is described as follows: In vitro activity in the presence of α-1 acid glycoprotein.
The target of data set [3] is T1, HIV-1 protease (wild-type, WT) (Human immunodeficiency virus type 1 group M subtype B, UniProt P04585).
T1 construct: purified HIV-1 protease (wild-type, WT)
Briefly: biochemical. The method, then: The inhibition constants (Ki) for the compounds of the above examples were determined using purified HIV-1 protease (wild-type, WT) (Tables I, II and III). Ki is an inhibition constant of a given compound as derived by enzyme kinetics. A low Ki represents a high affinity of the compound for the enzyme, i.e., tight binding or low dissociation. Inhibition of the cleavage was assayed using a fluorogenic substrate available from Molecular Probes, Inc., Eugene, Oreg., and described in Kageyama et al., Antimicrob. Agents. Chemother., 37, 272 (1993), and a fluorogenic substrate available from Bachem California, Torrance, Calif., and described in Kageyama et al. (1993), supra. Percent inhibition is the percentage inhibition of an enzyme's activity by a given compound at a given concentration.

The mark [4] stands for this setting: comparison table, read-out: EC50.
The mark [5] stands for this setting: comparison table, literature values by footnote.
Setting [6] is: Table I, unit inferred, read-out: Ki.

In general, IC50 refers to the concentration needed to halve the response being measured. Lower therefore signals higher potency. Broadly, the EC50 is the concentration at which the effect is half-maximal. As usually defined, the Ki is the equilibrium dissociation constant of an inhibitor or competing ligand from its target. For orientation: EC90 means the concentration needed for an effect of 90%.

Turning to `CC(C)[C@H](NC(=O)N(C)Cc1ccccn1)C(=O)N[C@@H](Cc1ccccc1)[C@H](O)[C@H](O)[C@H](Cc1ccccc1)NC(=O)[C@@H](NC(=O)N(C)Cc1ccccn1)C(C)C` [A-77003, reference compound], the IC50 in the data set with CEM cells (Homo sapiens, CCRF-CEM) was over 10000 nM. Besides, the selectivity ratio in the data set “in vitro” was over 71. Further, the EC50 in the data set with HIV-1 (Example 13, literature values) is 200 nM; in data set [1] (setting [4]), 140 nM.

In the case of `CC(C)C(NC(=O)OCc1ccccc1)C(=O)N[C@@H](Cc1ccccc1)[C@@H](O)[C@@H](O)[C@H](Cc1ccccc1)NC(=O)c1ccccc1NC(=O)OCc1ccccn1` (stereo partly shown) [DN-14], the “toxicity (from IC50/EC50)” value with CEM cells (Example 13) is given as “not toxic”. For the same molecule, the IC50 was over 100000 nM in the data set with CEM cells (Example 13, unit inferred); over 100000 nM with CEM cells (Homo sapiens, CCRF-CEM); over 100000 nM in the data set on CEM cells (comparison table). For the same molecule, in data set [2], the selectivity ratio was over 16700. Also, the “in vitro activity in presence of α-1 acid glycoprotein” value in the data set with α-1 acid glycoprotein is recorded as “not affected by the presence of α-1 acid glycoprotein; also recorded: unaffected in the presence of α-1 acid glycoprotein”. In addition, the EC50 in data set [1] (Example 13, CEM cells) stood at 6.5 nM; in data set [1] (comparison table), 6 nM.

As for `CC(C)(C)NC(=O)[C@@H]1CN(Cc2cccnc2)CCN1C[C@@H](O)C[C@@H](Cc1ccccc1)C(=O)N[C@H]1c2ccccc2C[C@H]1O` [Indinavir], the EC50 with HIV-1 (setting [5]) is 50 nM.

`CSC[C@H](NC(=O)COc1cccc2cnccc12)C(=O)N[C@@H](Cc1ccccc1)[C@H](O)C(=O)N1CSC[C@H]1C(=O)NC(C)(C)C` [KNI-272, reference compound] displayed an IC50 with CEM cells (Homo sapiens, CCRF-CEM) of over 100000 nM. The selectivity ratio in “in vitro” was over 3570. Further, the EC50 in data set [1] (Example 13, CEM cells, read-out: EC50) stood at 4.2 nM; in data set [1] (setting [4]) it was 28 nM.

For `Cc1c(O)cccc1C(=O)N[C@@H](Cc1ccccc1)[C@@H](O)C[C@H](Cc1ccccc1)NC(=O)c1ccccc1NC(=O)OCc1ccccn1` [LL-82, (2S,3S,5S)-2-[N-[(3-hydroxy-2-methylphenyl)carbonyl]amino]-5-[N-[N-[(2-pyridinylmethoxy)carbonyl]anthranilyl]amino]-1,6-diphenyl-3-hydroxy hexane], in the data set with CEM cells (Homo sapiens, CCRF-CEM), the IC50 turned out to be 40000 nM. Further, affinity in data set [3] was put at a Ki of 0.06 ± 0.018 nM. The EC50 in data set [1] (Table III) amounted to 33 nM.

In turn, `O=C(N[C@@H](Cc1ccccc1)C[C@H](O)[C@H](Cc1ccccc1)NC(=O)O[C@H]1CCOC1)O[C@H]1CCOC1` [RS-194] displayed an IC50 in the data set with CEM cells (Homo sapiens, CCRF-CEM) of over 50000 nM. Besides, in data set [3], the affinity, expressed as Ki, was 1.68 nM. In data set [1] (Table I), this molecule displayed an EC50 of 6500 nM.

For `Cc1c(O)cccc1C(=O)N[C@@H](Cc1ccccc1)[C@@H](O)[C@@H](O)[C@H](Cc1ccccc1)NC(=O)OC(C)(C)C` [RS-199], the IC50 with CEM cells (Homo sapiens, CCRF-CEM) is over 50000 nM. In addition, the Ki in data set [3] (setting [6]) was 0.66 nM. Moreover, in data set [1] (Table I, read-out: EC50), the EC50 came to 1300 nM.

`O=C(N[C@@H](Cc1ccccc1)[C@H](O)[C@H](O)[C@H](Cc1ccccc1)NC(=O)O[C@H]1CCOC1)O[C@H]1CCOC1` [RS-205]: the IC50 in the data set with CEM cells (Homo sapiens, CCRF-CEM) was over 150000 nM. In addition, the Ki in data set [3] amounted to 4.6 nM. Further, a half-maximal effect in data set [1] (Table I) (EC50) was put at 16000 nM.

Consider `Cc1c(O)cccc1C(=O)N[C@@H](Cc1ccccc1)[C@@H](O)C[C@H](Cc1ccccc1)NC(=O)OC(C)(C)C` [RS-208, (2S,3S,5S)-2-[N-[(3-hydroxy-2-methylphenyl)carbonyl]amino]-5-[N-(tert-butyloxycarbonyl)amino]-1,6-diphenyl-3-hydroxy hexane], for which the IC50 with CEM cells (Homo sapiens, CCRF-CEM) came to 23000 nM. The Ki in data set [3] (setting [6]) came out at 0.213 nM. Besides, the EC50 in data set [1] (Table I, read-out: EC50) came out at 470 nM.

Turning to `CC(C)c1nc(CN(C)C(=O)N[C@H](C(=O)N[C@@H](Cc2ccccc2)C[C@H](O)[C@H](Cc2ccccc2)NC(=O)OCc2cncs2)C(C)C)cs1` [Ritonavir], the concentration giving a half-maximal response (EC50) is 36 nM in the data set with HIV-1 (Example 13, literature values) and 36 nM in the data set with HIV-1 (setting [5]).

For the molecule `CC(C)(C)NC(=O)[C@@H]1C[C@@H]2CCCC[C@@H]2CN1C[C@@H](O)[C@H](Cc1ccccc1)NC(=O)[C@H](CC(N)=O)NC(=O)c1ccc2ccccc2n1` [Sequinavir], the EC50 in the data set on HIV-1 (Example 13, literature values) is 10 nM; in the data set on HIV-1 (setting [5]), 10 nM.

For `CC(C)CN(C[C@@H](O)[C@H](Cc1ccccc1)NC(=O)O[C@H]1CCOC1)S(=O)(=O)c1ccc(N)cc1` [VX-478], the EC90 in the data set on HIV-1 (comparison table, Kim et al., 1995, read-out: EC90 (EC50 column, footnote b)) was 40 nM.
